Assay results reported in patent US20250163062A1, “WNT PATHWAY INHIBITOR COMPOUNDS” (ADLAI NORTYE BIOPHARMA CO., LTD., priority 2022, published 2025).
Read-outs that look alike come from different tables or passages of the source.

What was measured:
Format in all cases: cell-based
Colo205 = assay: Proliferation inhibition test, Wnt mutant cell line Colo205; settings: Colo205, 96 h culture with compound, read-out: Antiproliferation IC50 Colo205
Source text: (§1) The cell lines used in the experiment are Colo205, H929, HepG2, and DU4475, which have sustained activation of the Wnt pathway and whose proliferation is Wnt pathway-dependent. On the other hand, RKO cell line, in which normally the Wnt pathway is not activated and whose proliferation is not Wnt pathway-dependent, was used as a control cell line. This was done to determine whether the inhibitory effect of the compound of the present disclosure on Wnt-dependent proliferation is due to other nonspecific toxicity.
(§2) Colo205, H929, DU4475, HepG2 and RKO cell lines cultured in their respective culture media were treated in the logarithmic growth phase, and the cells were collected and prepared into a uniform cell suspension of known concentration, and then added to a 96-well cell culture plate so that each well contained 1000-4000 cells. Place in a 5% CO2 cell culture incubator and culture at 37° C. for 20-24 h. On the second day, add the completely dissolved, 3-fold gradient dilution compound to each cell culture well to make the final maximum concentration in the cell culture well 10 uM, and continue to culture for 96 h. This test uses Promega's cell activity detection test for detection. The more the cells proliferate, the stronger the final signal intensity. The detection instrument is SpectraMax, full wavelength mode. The wells with only DMSO added were used as positive control wells, and the wells without cells inoculated were used as negative control wells.

RKO = assay: Proliferation inhibition test, non-Wnt mutant control cell line RKO; settings: RKO (Wnt pathway not activated, control), 96 h culture, maximum concentration 10 uM, read-out: Antiproliferation IC50 RKO
Source text: as §1, §2

DU4475 = assay: Proliferation inhibition test, Wnt mutant cell line DU4475; settings: DU4475, 96 h culture with compound, read-out: Antiproliferation IC50 DU4475
Source text: as §1, §2

HepG2 = assay: Proliferation inhibition test, Wnt mutant cell line HepG2; settings: HepG2, 96 h culture with compound, read-out: Antiproliferation IC50 HepG2
Source text: as §1, §2

[1] = system: Colo205-LUC-TCF/LEF reporter gene; assay: Colo205-LUC-TCF/LEF M1 reporter cell line luciferase inhibition; settings: 4 h, 4 hours incubation, firefly luciferase signal
Method: Colo205 cell line (Cell Bank of Chinese Academy of Sciences, Cat #TCHul02) was purchased from the Cell Bank of Chinese Academy of Sciences. After expansion and subculture, during the exponential growth phase, luciferase reporter plasmid (Promega) driven by TCF/LEF transcription factor was transfected by lipo3000 liposome transfection. The plasmid carries a resistance gene for resistance screening. Transfection was carried out in 10 cm culture dishes using conventional complete medium without resistance. After 2 days, the medium with resistance was replaced, and the culture was continued. After that, the medium with resistance was replaced every 2 days, and the suspended cells were discarded. The original medium was centrifuged to remove cells and debris and retained as an adaptive medium. When the cells covered the culture dish, the cells were digested, counted, and passaged in a 96-well plate, so that the average number of cells contained in each well was 1.5/well, and the adaptive medium was used for passage. The rest of the cells were frozen. After passage, culture for 4 hours to allow the cells to adhere to the wall, and then observe the number of cells in each well under a microscope. Wells with only 1 cell per well were labeled as monoclonal wells. Afterwards, normal culture was performed, and the culture medium was replaced every 2 days, and observed. There are wells where the monoclonal cells continue to grow in the early stage, and they are labeled twice, and can be replaced with normal medium with resistance. When a monoclonal well was overgrown with a 96-well plate, it is digested and passaged to a 24-well culture plate. After the 24-well plate is overgrown, it is passaged to a 96-well plate and a 6-well plate. The cells in a 96-well plate are at least 6 wells, of which 3 wells were added with known Wnt inhibitors, and the other 3 wells were not treated. After 24 hours, the cells in the 96-well plate were added with a fluorescence detection reagent to detect the fluorescence intensity. Cell lines with fluorescent expression when not treated and decreased fluorescent light after inhibition were selected and further cultured. The Colo205-LUC-TCF/LEF-M1 cell line is one of the cell lines screened above. Its growth curve, cell shape, and cell growth state are similar to those of the original Colo205 cells, and the ratio of the fluorescent signals of the inhibitor-treated and untreated cells is the largest among all cell lines, and the ratio can reach 4-5 times when inhibited at 4 hours, which was completely suitable for the screening of Wnt inhibitors in the later stage.
The Colo205-LUC-TCF/LEF M1 cell line is a reporter tool cell stably transfected with the pGL4.49-LUC2-TCF/LEF vector. The β-catenin Wnt pathway is continuously activated. After adding the inhibitor, the Wnt pathway is inhibited. The expression of firefly luciferase regulated by the TCF/LEF cis-element decreased, and after adding the detection substrate, the detected light signal decreased accordingly, so as to detect the inhibitory effect of the compound.
To a 96-well cell culture plate, add 100 uL of the compound with a maximum concentration of 20 uM to each well, and make a 3-fold serial dilution of the compound concentration. Then 10,000 colo205 cells stably transfected with the reporter gene and 100 uL medium were inoculated into each well, and corresponding positive and negative control wells were made at the same time. Put the cells in a 5% CO2 incubator and incubate at 37° C. for 4 hours. After 4 hours, remove the culture medium, add 100 μL of reagent (Promega) containing the corresponding firefly luciferase substrate to each well, and measure the activity of luciferase reporter gene. Luminescence intensity was read with SpectraMax in full wavelength mode. […]

H929 = assay: Proliferation inhibition test, Wnt mutant cell line H929; settings: H929, 96 h culture with compound, read-out: Antiproliferation IC50 H929
Source text: as §1, §2

Row | SMILES | IC50 (Colo205; Homo sapiens, COLO 205, 96 h) [µM] | IC50 (RKO; Homo sapiens) [µM] | IC50 (DU4475; Homo sapiens, DU-4475, 96 h) [µM] | IC50 (HepG2; Homo sapiens, HepG2, 96 h) [µM] | IC50 [1] [µM] | IC50 (H929; Homo sapiens, NCI-H929, 96 h) [µM] | IC50 (Colo205) [µM] | IC50 (RKO) [µM] | IC50 (DU4475) [µM] | IC50 (HepG2) [µM] | IC50 (H929) [µM]
1 | [2H]C([2H])([2H])N1c2nc(NCc3ccc(Oc4cnc(C(F)(F)F)nc4C4CC4)nc3)nc3c2N(CCC3)C(=O)[C@]1(C)CO [Compound 10, (S)-2-(((6-((4-cyclopropyl-2-(trifluoromethyl)pyrimidin-5-yl)oxy)pyridin-3-yl)methyl)amino)-5-(hydroxymethyl)-5-methyl-4-(methyl-d3)-4,5,9,10-tetrahydro-6H,8H-pyrido[3,2,1-de]pteridin-6-one] | 0.00234 | > 10 | < 0.0005 | 0.00354 | 0.00389 | 0.018 |  |  |  |  | 
2 | [2H]C([2H])([2H])N1c2nc(NCc3ccc(Oc4ccc(C(F)(F)F)nc4Br)nc3)nc3c2N(CCC3)C(=O)[C@]1(C)CO [Compound 12, (S)-2-(((6-((2-bromo-6-(trifluoromethyl)pyridin-3-yl)oxy)pyridin-3-yl)methyl)amino)-5-(hydroxymethyl)-5-methyl-4-(methyl-d3)-4,5,9,10-tetrahydro-6H,8H-pyrid o[3,2,1-de]pteridin-6-one] | 0.00652 | > 10 | 0.00082 | 0.0121 | 0.00909 | 0.0313 |  |  |  |  | 
3 | CN1c2nc(NCc3ccc(Oc4ccc(C(F)(F)F)nc4N4CCCC4)nc3)nc3c2N(CCC3)C(=O)[C@]1(C)CO [Compound 13, (S)-5-(Hydroxymethyl)-4,5-dimethyl-2-(((6-((2-(pyrrolidin-1-yl)-6-(trifluoromethyl)pyridin-3-yl)oxy)pyridin-3-yl)methyl)amino)-4,5,9,10-tetrahydro-6H,8H-pyrido[3,2,1-de]pteridin-6-one] | 0.0115 | > 10 | 0.00158 | 0.0191 | 0.00686 | 0.054 |  |  |  |  | 
4 | CNc1nc(C(F)(F)F)ccc1Oc1ccc(CNc2nc3c4c(n2)N(C)[C@@](C)(CO)C(=O)N4CCC3)cn1 [Compound 16, (S)-5-(Hydroxymethyl)-4,5-dimethyl-2-(((6-((2-(methylamino)-6-(trifluoromethyl)pyridin-3-yl)oxy)pyridin-3-yl)methyl)amino)-4,5,9,10-tetrahydro-6H,8H-pyrido[3,2,1-de]pteridin-6-one] | < 0.0001 | > 10 | 0.0012 | 0.00113 | 0.0215 | 0.103 |  |  |  |  | 
5 | CN1c2nc(NCc3ccc(Oc4ccc(C(F)(F)F)nc4CC#N)nc3)nc3c2N(CCC3)C(=O)[C@@H]1CO [Compound 17, (S)-2-(3-((5-(((5-(Hydroxymethyl)-4-methyl-6-carbonyl-5,6,9,10-tetrahydro-4H,8H-pyrido[3,2,1-de]pteridin-2-yl)amino)methyl)pyridin-2-yl)oxy)-6-(trifluoromethyl)pyridin-2-yl)acetonitrile] | 0.179 | > 10 | 0.0429 | 0.879 | 0.264 | 0.599 |  |  |  |  | 
6 | [2H]C([2H])([2H])N1c2nc(NCc3ccc(Oc4ccc(C(F)(F)F)nc4F)nc3)nc3c2N(CCC3)C(=O)[C@]1(C)CO [Compound 18, (S)-2-(((6-((2-fluoro-6-(trifluoromethyl)pyridin-3-yl)oxy)pyridin-3-yl)methyl)amino)-5-(hydroxymethyl)-5-methyl-4-(methyl-d3)-4,5,9,10-tetrahydro-6H,8H-pyrido[3,2,1-de]pteridin-6-one] | 0.00743 | > 10 | 0.00672 | 0.0221 | 0.0299 | 0.0788 |  |  |  |  | 
7 | Cc1nc(C(F)(F)F)ncc1Oc1ccc(CNc2nc3c4c(n2)N(C)[C@@](C)(CO)C(=O)N4CCC3)cn1 [Compound 19] | 0.0266 | > 10 | 0.0148 | 0.0312 | 0.0348 | 0.0583 |  |  |  |  | 
8 | CN(c1nc(C(F)(F)F)ccc1Oc1ccc(CNc2nc3c4c(n2)N(C)[C@@](C)(CO)C(=O)N4CCC3)cn1)C1CC1 [Compound 20] | < 0.0001 | > 10 | < 0.0001 | 0.00322 | 0.00146 | 0.052 |  |  |  |  | 
9 | CN1c2nc(NCc3ccc(Oc4ccc(C(F)(F)F)nc4N4CC(F)(F)C4)nc3)nc3c2N(CCC3)C(=O)[C@]1(C)CO [Compound 21] | < 0.0001 | > 10 | 0.00483 | 0.00152 | 0.00494 | 0.255 |  |  |  |  | 
10 | Cc1nc(C(F)(F)F)ncc1Oc1ccc(CNc2nc3c4c(n2)N(C)[C@@](C)([C@H](C)O)C(=O)N4CCC3)cn1 [Compound 22] |  |  |  |  | 0.09 |  | 0.0643 | > 10 | 0.0386 | 0.224 | 0.309
11 | Cc1nc(C(F)(F)F)ncc1Oc1ccc(CNc2nc3c4c(n2)N(C)[C@@H]([C@@H](C)O)C(=O)N4CCC3)cn1 [Compound 23] | 0.0537 | > 10 | 0.016 | 0.0375 | 0.0647 | 0.192 |  |  |  |  | 
12 | [2H]C([2H])([2H])N1c2nc(NCc3ccc(Oc4cnc(C(F)(F)F)nc4C)nc3)nc3c2N(CCC3)C(=O)[C@@H]1[C@@H](C)O [Compound 24] | 0.0465 | > 10 | 0.0232 | 0.037 | 0.048 | 0.00561 |  |  |  |  | 
13 | Cc1nc(C(F)(F)F)ncc1Oc1ccc(CNc2nc3c4c(n2)N(C)[C@@H]([C@H](C)O)C(=O)N4CCC3)cn1 [Compound 25] | 0.0645 | > 10 | 0.0159 | 0.068 | 0.0694 | 0.098 |  |  |  |  | 
14 | CN1c2nc(NCc3ccc(Oc4ccc(C(F)(F)F)nc4F)nc3)nc3c2N(CCC3)C(=O)[C@@H]1CO [Compound 26] | 0.0189 | > 10 | 0.0121 | 0.0136 | 0.0438 | 0.0988 |  |  |  |  | 
15 | [2H]C([2H])([2H])N1c2nc(NCc3ccc(Oc4ccc(C(F)(F)F)nc4F)nc3)nc3c2N(CCC3)C(=O)[C@@H]1CO [Compound 27] | 0.0228 | > 10 | 0.0246 | 0.0383 | 0.0307 | 0.0902 |  |  |  |  | 
